We go through 6 compounds from patent US6924309B2 (Children, Youth and Women's Health Service Incorporated, priority 1999, dated 2005).

One assay concerns the target T1, 15-LO (Glycine max, UniProt P08170).
T1 construct: purchased Sigma Chemical Company
T1 sequence (P08170 1-839): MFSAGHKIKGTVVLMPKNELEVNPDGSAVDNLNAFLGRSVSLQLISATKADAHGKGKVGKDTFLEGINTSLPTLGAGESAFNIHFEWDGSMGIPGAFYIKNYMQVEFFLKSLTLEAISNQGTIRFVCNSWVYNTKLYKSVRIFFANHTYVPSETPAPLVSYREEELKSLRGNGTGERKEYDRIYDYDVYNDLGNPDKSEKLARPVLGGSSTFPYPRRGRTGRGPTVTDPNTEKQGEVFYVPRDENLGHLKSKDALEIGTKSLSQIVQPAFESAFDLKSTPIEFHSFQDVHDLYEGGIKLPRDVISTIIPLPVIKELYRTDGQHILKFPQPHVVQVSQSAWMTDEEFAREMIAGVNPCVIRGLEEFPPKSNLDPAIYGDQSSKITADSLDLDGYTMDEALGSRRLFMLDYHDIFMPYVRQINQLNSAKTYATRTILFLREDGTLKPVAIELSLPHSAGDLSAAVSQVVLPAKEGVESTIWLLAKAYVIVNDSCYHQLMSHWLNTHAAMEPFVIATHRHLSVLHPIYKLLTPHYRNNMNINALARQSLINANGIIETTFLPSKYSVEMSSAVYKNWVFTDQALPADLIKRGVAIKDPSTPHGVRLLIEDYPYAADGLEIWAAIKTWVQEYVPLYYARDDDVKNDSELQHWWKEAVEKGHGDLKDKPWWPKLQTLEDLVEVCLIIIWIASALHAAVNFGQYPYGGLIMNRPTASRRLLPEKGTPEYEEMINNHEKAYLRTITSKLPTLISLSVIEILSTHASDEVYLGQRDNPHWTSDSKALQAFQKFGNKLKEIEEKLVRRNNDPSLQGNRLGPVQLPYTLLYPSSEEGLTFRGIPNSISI
The experiment in a line: Effect on 15-LO catalysed oxidation of arachidonic acid. Format: biochemical, soybean. The following applies: for Ki: mixed inhibition pattern.

For another assay, the system named is 5-LO. The experiment in a line: Effect on 5-LO catalysed oxidation of arachidonic acid. Format: biochemical.
The next assay deals with T2, 12-LO (Sus scrofa, UniProt P16469).
T2 construct: purchased Cayman Chemical Company
T2 sequence (P16469 1-663): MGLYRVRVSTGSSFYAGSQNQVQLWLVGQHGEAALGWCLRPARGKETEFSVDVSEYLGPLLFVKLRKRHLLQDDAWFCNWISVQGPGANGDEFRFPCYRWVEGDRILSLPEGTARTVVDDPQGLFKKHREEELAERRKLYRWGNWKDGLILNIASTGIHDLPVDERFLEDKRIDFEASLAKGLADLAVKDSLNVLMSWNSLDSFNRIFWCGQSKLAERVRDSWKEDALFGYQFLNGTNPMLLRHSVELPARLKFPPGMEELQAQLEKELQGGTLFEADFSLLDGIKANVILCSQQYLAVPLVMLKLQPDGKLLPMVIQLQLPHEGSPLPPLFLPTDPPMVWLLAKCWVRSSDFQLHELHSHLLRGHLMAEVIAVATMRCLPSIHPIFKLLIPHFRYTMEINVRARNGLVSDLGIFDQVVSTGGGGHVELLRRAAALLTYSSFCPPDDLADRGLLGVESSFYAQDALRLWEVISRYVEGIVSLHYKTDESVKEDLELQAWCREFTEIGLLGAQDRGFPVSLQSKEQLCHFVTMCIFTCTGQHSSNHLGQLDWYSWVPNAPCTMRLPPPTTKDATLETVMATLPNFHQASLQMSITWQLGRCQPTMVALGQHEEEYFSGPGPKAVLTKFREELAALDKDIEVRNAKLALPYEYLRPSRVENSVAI
The experiment in a line: Effect on 12-LO catalysed oxidation of arachidonic acid. It is filed as biochemical, porcine.

The nature of another assay: Paw oedema. The following applies: in vivo.
The subject of assay [1] is Plasmodium falciparum isolates 3D7, FC27, K+. The experiment in a line: Radiometric (3H-hypoxanthine) assay on asexual blood stages of P. falciparum. It is filed as cell-based. How it is done: Using the radiometric assay^(36), the effects of the Lx compounds were examined for antimalarial activity. The Plasmodium falciparum isolates used were 3D7, FC27, K^1 and K^+. These were maintained in human blood group O^+ erythrocytes essentially as described previously using RPM-1640 (HEPES modification) supplemented with 0.25% D-glucose, 0.2% Tess buffer (Sigma Chemical Co, Lt Louis, Mo.) and 10% heat inactivated (56° C., 20 min) human blood group AB serum. Cultures were maintained in tissue culture flasks (Corning, N.Y.) at 37° C. under an atmosphere of 1% 2, 5% CO2 in N2. P. falciparum cultures containing approximately 3.0:% parasitaemia were adjusted to 1×10^8 erythrocytes/ml. To 50 μl of the parasite-erythrocyte culture (5×10^6 erythrocytes) in wells of 96-well microdilution plates wvas added 50 μl of the designated concentration of fatty acid or equivalent amounts of solutions or media. The treated cultures were incubated at 37° C. for 4 h and then pulsed with 50 μl (2.5 μCi) of ^3H-hypoxanthine. After a further 18 h incubation the parasites-erythrocytes were harvested onto glass fibre filter papers using a cell harvester. The amount of radioactivity incorporated was measured in a β-counter. The results have been expressed as % inhibition of parasite growth i.e. the dpm in the fatty acid diluent−dpm in the fatty acid treated cultures/dpm in diluent×100.

The subject of another assay is human neutrophils. The experiment in a line: AA-enhanced chemiluminescence in human neutrophils. It is filed as cell-based. The following applies: neutrophils pretreated with compound. The procedure:
Arachidonic acid (AA) is a natural agonist which stimulates oxygen radical production in neutrophils leading to tissue damage during inflammation. Studies were conducted to examine whether or not the Lx compounds could antagonise the effects of AA. Neutrophils were pretreated with Lx compounds and then examined for chemiluminescence response to AA addition. […] The effect of Lx compounds on AA-enhanced chemiluminescence in human neutrophils is shown graphically in FIG. 11.

The next assay relates to TNF-α. The experiment in a line: TNF-α production by human peripheral blood leukocytes. It is filed as cell-based. The following applies: Leukocyte, stimulus S. aureus, read-out: % Inhibition (compared to control) of TNF-α. How it is done: (§1) The effects of the nitroalkanes (Lx1-Lx5) on lymphocyte activation and cytokine production were examined. The ability of the PUFA to suppress mitogen-induced proliferation in response to PHA and S. aureus, and to inhibit cytokine production (TNFα and IFNγ), was assessed.

In a further assay the test system is IFN-γ. The experiment in a line: IFN-γ production by human peripheral blood leukocytes. It is filed as cell-based. As to conditions: Leukocyte, stimulus PHA, read-out: % Inhibition (compared to control) of IFN-γ. The procedure:
as §1

Molecules are shown by their SMILES. Where two headings read alike, the source gives them in different places.

As for `CCCCCCCCCCCCCCCCCC(CCC(=O)O)(CCC(=O)O)[N+](=O)[O-]` [Lx8, 3-Heptadecyl-3-nitropentane-1,5-dicarboxylic acid], the figures for the “Effect on 15-LO catalysed oxidation of AA” value on 15-LO, on 15-LO (listed as 3-heptadecyl-3-nitropentane-1,5-dicarboxylic acid) and on 15-LO (listed as 8a) were “Inhibitory”, “selective inhibitors” and “inhibitory effect”, respectively. Besides, the Ki on 15-LO (read-out: Ki, 15-LO catalysed oxidation of arachidonic acid) was 27.4 µM; on 15-LO (read-out: Kl (second inhibitor constant; printed Ki in Table 3), 15-LO catalysed oxidation of arachidonic acid), 55.2 µM. Moreover, the “Effect on 5-LO catalysed oxidation of AA” value in the assay on 5-LO is “Nil”. In addition, the “Effect on 12-LO catalysed oxidation of AA” value on 12-LO was “Activatory”; on 12-LO (listed as 8a) it was “Neither 8a nor 6a inhibits 12-LO”.

For the compound `CCCCCCCCCCCCCCCCCC(CCC(=O)O)[N+](=O)[O-]` (stereo not shown) [Lx6, 4-Nitrohenicosanoic acid], the “Effect on 15-LO catalysed oxidation of AA” value on 15-LO was “Activatory”; at 15-LO (listed as 6a) it was “not 15LO”. For the same compound, the “Effect on 5-LO catalysed oxidation of AA” value with 5-LO is recorded as “Inhibitory”; in the assay on 5-LO (listed as 4-nitrohenicosanoic acid), “selective inhibitors”; in the assay on 5-LO (listed as 6a), “inhibiting 5-LO”. In addition, in the assay with 5-LO (read-out: IC50, 5-LO catalysed oxidation of AA), the half-maximal inhibitory concentration (IC50) – broadly, the concentration needed to halve the response being measured – was 60 µM. Also, the “Effect on 12-LO catalysed oxidation of AA” value on 12-LO is “Activatory”; on 12-LO (listed as 6a) it was “Neither 8a nor 6a inhibits 12-LO”.

`CCCCCCCCCCCCCCCCCC[N+](=O)[O-]` [Lx1, 1-Nitrooctadecane]: the “Effect on 15-LO catalysed oxidation of AA” value on 15-LO was “Nil”. Also, the “Effect on 5-LO catalysed oxidation of AA” value in the assay on 5-LO is “Nil”. For the same compound, on 12-LO, the “Effect on 12-LO catalysed oxidation of AA” value is given as “Nil”. In addition, the “Effect in paw oedema” value in “Paw oedema” was “inflammatory”.

In the case of `CCCCC/C=C\C/C=C\C/C=C\C/C=C\CCCC(CCC(=O)O)(CCC(=O)O)[N+](=O)[O-]` [Lx9, 3-[(a11-Z)-Nonadeca-4,7,10,13-tetraenyl] 4-nitroheptane-1,7-dicarboxylic acid], at 15-LO, the “Effect on 15-LO catalysed oxidation of AA” value is recorded as “Nil”. Further, in the assay on 5-LO, the “Effect on 5-LO catalysed oxidation of AA” value was “Activatory”. Further, the “Effect on 12-LO catalysed oxidation of AA” value at 12-LO is on record as “Inhibitory”; at 12-LO (listed as 3-(all-Z)-nonadeca4,7,10,13-tetraeny]-3-nitropertane-1,5-dicarboxylic acid) it was “selective inhibitors”; at 12-LO (listed as 8b), “significant inhibitory effect”. Moreover, the “Antimalarial activity (in words)” value in assay [1] was “did not have appreciable antimalarial activity”. Further, the “Inhibition of AA-stimulated oxygen radical production (chemiluminescence)” value in the assay on human neutrophils is “particularly evident”.

With `CC/C=C\C/C=C\C/C=C\CCCCCCCC[N+](=O)[O-]` [Lx2, (z,z,z)-1-Nitro-9,12,15-octadecatriene], the “Effect on 15-LO catalysed oxidation of AA” value at 15-LO is listed as “Nil”. In addition, in assay [1], the “Antimalarial activity (in words)” value is “most promising”. Further, the inhibition (usually the change of the read-out against control, counted positive when it falls) at 20 µM is 43.7% in the assay with TNF-α and 40.4% with IFN-γ.

As to `CCCCC/C=C\C/C=C\C/C=C\C/C=C\CCCC[N+](=O)[O-]` [Lx4, (a11-z)-1-Nitro-5,8,11,14-eicosatetraene], the “Effect on 15-LO catalysed oxidation of AA” value at 15-LO is on record as “Nil”. For the same compound, the “Effect on 5-LO catalysed oxidation of AA” value with 5-LO was “Nil”. Moreover, the “Effect on 12-LO catalysed oxidation of AA” value on 12-LO is reported as “Nil”. Also, the “Antimalarial activity on P. falciparum 3D7 (FIG. 1, in words)” value in assay [1] (isolate 3D7) was “activity is lost”. For the same compound, the inhibition at 20 µM amounted to 34% in the assay with TNF-α and 79.8% in the assay on IFN-γ.
